# Laboratory results published in US8835171B2, “Materials and methods related to sodium/potassium adenosine triphosphase and cholesterol” (The University of Toledo, priority 2010, dated 2014).
# Key:
# [1] = biological target: T1, purified pig kidney Na/K-ATPase (PKE) (Sus scrofa, UniProt P05024); assay: NBD-cholesterol binding assay with purified pig kidney enzyme (PKE)
# T1 construct: Purified Na/K-ATPase membrane samples (PKE) were prepared from pig kidney medulla; from tissue; host or cells: pig kidney outer medulla
# Source text: As the purified membrane fragments contained large amount of cholesterol, which may already saturated binding sites on the Na/K-ATPase, most of the cholesterol content was extracted by Mβ-CD (FIG. 5B). To study the binding between the Na/K-ATPase and cholesterol, a cholesterol analogue, 25-[N-[(7-nitro-2-1,3-benzoxadiazol-4-yl)methyl]amino]-27-norcholesterol (NBD cholesterol), was used for the binding assay. NBD-cholesterol was used for the study of protein-cholesterol interaction before. Unlike cholesterol, NBD-cholesterol is able to emit fluorescence signals that peak at ˜530 nm when excited at 473 nm because of the replacement of the methyl group at C25 position with an NBD group (FIG. 5C). In the aqueous solution, its fluorescence is largely quenched. However, when it binds to a protein and is exposed to a hydrophobic environment, the fluorescence signals will increase. Moreover, it has much higher critical micelle concentration (˜650 nM) than that of the cholesterol (30 nM) so that higher concentrations of the NBD-cholesterol can be used during the binding assay. […] The Kd value is 100 nM-200 nM.
# To further confirm that the results represented lipid-protein interaction instead of lipid-lipid interaction, the inventors measured fluorescence resonance energy transfer (FRET) signals. […]
# [2] = test system: insulin receptor β subunit; assay: Western blot of insulin receptor in LLC-PK1 cells; format: cell-based, pig
# Procedure: (§1) Protein concentrations of cell lysates or tissue homogenates were measured by Protein Assay Kit from Bio-Rad (Hercules, Calif.). Equal amounts of protein were loaded onto the gel and separated on 10% SDS-PAGE, transferred to an Optitran membrane, and probed with corresponding antibodies. Protein signals were detected with an ECL kit. The density of the Western bands was quantified by the free software Image J.
# caveolin-1 = assay: Western blot of caveolin-1 in LLC-PK1 cells; format: cell-based, pig; conditions: U18666A 48 h
# Procedure: as §1
# wild-type rat α1 = assay: α1 and filipin staining in wild-type rat α1-rescued cells (AAC-19); format: cell-based; conditions: AAC-19 cells, different doses of U18666A 24 h
# Procedure: Thus, it was of interest to explore whether the CRAC plays a role in cholesterol depletion-induced α1 endocytosis. Firstly, the inventors treated wild-type rat α1 rescued-cells, AAC-19, with U18666A and stained both α1 and cholesterol. […] Staining of the Na/K-ATPase α1 was performed as previously described. Briefly, cells were serum-starved for 24 hours and treated on coverslips. The cells were then fixed with ice-cold methanol for 30 min and blocked with Signal Enhancer from Invitrogen. Next, cells were incubated with a monoclonal anti-Na/K-ATPase α1 antibody at 4° C. overnight. After three washes with PBS, a secondary Alex 488-conjugated anti-mouse antibody was added and incubated at room temperature for 3 hours. The coverslip was washed, mounted and imaged with a Leica confocal microscope.
# LLC-PK1 cells [3] = assay: Cholesterol assay of LLC-PK1 cell lysates; format: cell-based, pig; conditions: U18666A-treated cells
# Procedure: LLC-PK1 cells were grown in 6 cm culture dish to 100% confluence and serum starved for 24 hours. […] […] Cell lysates were subject to protein assay and Western blot analysis. Cholesterol assay and filipin staining were performed as described in Chen et al., Regulation of intracellular cholesterol distribution by Na/K-ATPase. Journal Biological Chemistry, Volume 284, pages 14881-14890 (2009).
# Na/K-ATPase α1 [4] = assay: Immunostaining / confocal imaging of Na/K-ATPase α1 distribution in LLC-PK1 cells; format: cell-based, pig
# Na/K-ATPase α1 mRNA = assay: Quantitative RT-PCR of α1 mRNA; format: cell-based, pig; conditions: LLC-PK1 cells, 10 μg/ml U18666A 24 h
# Procedure: The quantitative RT-PCR on mRNA levels of Na/K-ATPase α1 and GAPDH were performed as described in Tian et al., Changes in sodium pump expression dictate the effects of ouabain on cell growth, Journal of Biological Chemistry, 14921-1429 (2009).
# cell surface Na/K-ATPase = assay: 3H-ouabain binding assay of cell surface Na/K-ATPase; format: cell-based, pig; conditions: LLC-PK1 cells, U18666A
# Procedure: [3H]Ouabain Binding was conducted as described in Tian et al., Changes in sodium pump expression dictate the effects of ouabain on cell growth, Journal of Biological Chemistry, 14921-1429 (2009).
# Na/K-ATPase α1 [5] = assay: Western blot of Na/K-ATPase α1 level in LLC-PK1 cells; format: cell-based, pig
# Procedure: as §1, with “LLC-PK1 cells were grown in 6 cm culture dish to 100% confluence and serum starved for 24 hours. Cells were then treated by 10 mM Mβ-CD for 1 hour. […] Cell lysates were subject to protein assay and Western blot analysis. Protein concentrations” for “Protein concentrations”
# LLC-PK1 cells [6] = assay: Filipin staining of cholesterol distribution in LLC-PK1 cells; format: cell-based, pig; conditions: U18666A 24 h
# Procedure: Cholesterol assay and filipin staining were performed as described in Chen et al., Regulation of intracellular cholesterol distribution by Na/K-ATPase. Journal Biological Chemistry, Volume 284, pages 14881-14890 (2009).
# Y55S mutant rat α1 = assay: α1 and filipin staining in Y55S mutant rat α1-rescued cells (PY-17-Y55S); format: cell-based; conditions: PY-17-Y55S cells, different doses of U18666A 24 h
# Source text: Next, the inventors mutated the essential Tyr55 in the rat α1 CRAC (corresponds to the Tyr53 in pig α1) to Ser55 by a site-directed mutagenesis method and generated the stable mutant rat α1-rescued cell line (PY-17-Y55S). Once the cell line was established, the inventors did the same experiment as on AAC-19 cells. […] To confirm the findings, the inventors had the CRAC synthesized with a positively charged leader peptide, HIV-TAT, tagged to the N-terminus of CRAC so that the TAT-CRAC peptide was cell permeable. Theoretically, loading of the TAT-CRAC peptide into the cells may interrupt the binding between endogenous α1 and cholesterol by competitive inhibition. […] Taken together, the cholesterol-regulated Na/K-ATPase α1 membrane trafficking is dependent on the cholesterol-α1 interaction.
# The rat α1 CRAC mutant (Tyr55 to Ser55) was created by PCR-based site-directed mutagenesis on the pRc/CMV-a1AACm1 plasmid as generated previously. The Y55S mutant rat α1 knock-in cell line was then established using the same protocol described before. The pEYFP-α1 plasmid was generated as described previously. RFP-rab7 plasmid was requested from www.addgene.org. The preparation of plasmid constructs expressing GST fusion proteins were made from pGEX-4T-1 as previously described. GST-NT (Ala1-Ser160) and GST-NT-Y55S expression vectors were constructed based on sequence of pig kidney Na/K-ATPase α1 subunit. […]
# LLC-PK1 cells [7] = conditions: 10 mM Mβ-CD 30-60 minutes at 37°, previous work from the inventors' lab; cited from earlier work
compound,measurement,setting,value
"CC(CCC[C@@H](C)[C@@H]1CC[C@H]2[C@@H]3CC=C4C[C@@H](O)CC[C@]4(C)[C@H]3CC[C@@]21C)N(C)c1ccc([N+](=O)[O-])c2nonc12 (stereo partly shown) [NBD-cholesterol, 25-[N-[(7-nitro-2-1,3-benzoxadiazol-4-yl)methyl]amino]-27-norcholesterol]",FRET signals at 530 nm on incubation with PKE,[1]; Trp excited at 295 nm,dose-dependent saturation curve
CCN(CC)CCO[C@H]1CC[C@@]2(C)C(=CC[C@@H]3[C@@H]2CC[C@]2(C)C(=O)CC[C@@H]32)C1 [U18666A],insulin receptor content,[2]; LLC-PK1 cells after U18666A treatment,remained undisturbed
same,caveolin-1 protein level,caveolin-1,downregulated
same,endocytosis of α1,wild-type rat α1,endocytosis of α1 in a dose-dependent manner
same,total cellular cholesterol,LLC-PK1 cells [3],no significant difference
same,"intracellular α1 accumulation, colocalization with RFP-Rab7","Na/K-ATPase α1 [4]; LLC-PK1 cells transfected with RFP-rab7, 5 μg/ml U18666A 24 h","massive intracellular α1 accumulation, most of which clearly colocalized with the Rab7 signals"
same,colocalization of internalized YFP-α1 with free cholesterol,"Na/K-ATPase α1 [4]; LLC-PK1 cells transfected with YFP-α1, 5 μg/ml U18666A 24 h",most of the internalized α1 colocalized with free cholesterol
same,"α1 signals, cellular distribution","Na/K-ATPase α1 [4]; LLC-PK1 cells, U18666A 24 h",reduced in the plasma membrane but increased in the intracellular compartments
same,α1 mRNA level,Na/K-ATPase α1 mRNA,no difference compared to control
same,cell surface α1 by 3H-ouabain binding,cell surface Na/K-ATPase,downregulation of cell surface α1
same,downregulation of α1 expression,Na/K-ATPase α1 [5]; U18666A 24 h and 48 h,both dose and time-dependent
same,distribution of free cholesterol,LLC-PK1 cells [6],redistribution of free cholesterol from the plasma membrane to intracellular compartments
same,endocytosis of α1,Y55S mutant rat α1,no obvious endocytosis
CC(C)CCC[C@@H](C)[C@H]1CC[C@H]2[C@@H]3CC=C4C[C@@H](O)CC[C@]4(C)[C@H]3CC[C@]12C [cholesterol],competition of binding between NBD-cholesterol and purified PKE,"[1]; 100 nM PKE, 30 nM NBD-cholesterol, FRET",competed the binding
C[C@@H]1C[C@@H]([C@H](O)CC2CC(=O)NC(=O)C2)C(=O)[C@@H](C)C1 [cycloheximide],effect on U18666A-induced α1 redistribution to the intracellular compartments,Na/K-ATPase α1 [4]; cycloheximide 10 μg/ml 1 h before U18666A 24 h,did not prevent
methyl β-cyclodextrin [Mβ-CD],expression of insulin receptor,[2]; during cholesterol depletion by Mβ-CD and repletion,unchanged
same,α1 immunostaining signals,Na/K-ATPase α1 [4]; Mβ-CD treated LLC-PK1 cells,lower α1 signals from the plasma membrane
same,plasma membrane cholesterol pool,LLC-PK1 cells [7],significantly lowered
same,decrease in α1 level,"Na/K-ATPase α1 [5]; 10 mM Mβ-CD 1 h, 0 h recovery",~40%
